# Measurements taken from article PMC7377239, “Cardiovascular Effects of Polychlorinated Biphenyls and Their Major Metabolites” (Environmental Health Perspectives, 2020).
# Like-named read-outs stand apart in the source and are kept apart here.
# Tested on: iCell cardiomyocytes (human iPSC-derived cardiomyocytes)
# Assay: Intracellular Ca2+ flux / beating parameters in iCell cardiomyocytes (FLIPR tetra), 90 min or 24 h
# Type: cell-based
# Settings: Homo sapiens, Cardiomyocyte, 0.00 µM = 100.00; for activity at 0.1 µM: 0.10 µM
# Method in brief: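 PODs were defined as the concentration crossing one SD of the vehicle-control means (0.5% DMSO) on four-parameter logistic fits of Ca2+ trace metrics (peak height, frequency, peak-spacing CV, decay/rise ratio). Traces came from 100 s, 8 Hz FLIPR reads at 37 °C on calcium-dye-loaded iCell cardiomyocytes. Before reading, cells were treated for 90 min or 24 h from 5× chemical plates spanning 0.05–500 µM, in triplicate.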
# [1] = 1.5 h, 90min, read-out: cm.amp.avg.90min
# [2] = 1.5 h, 90min, read-out: cm.amp.cv.90min
# [3] = 1.5 h, 90min, read-out: cm.bpm.90min
# [4] = 1.5 h, 90min, read-out: cm.decay.rise.90min
# [5] = 1.5 h, 90min, read-out: cm.spacing.cv.90min
# [6] = 24 h, 24hrs, read-out: cm.amp.avg.24hrs
# [7] = 24 h, 24hrs, read-out: cm.amp.cv.24hrs
# [8] = 24 h, 24hrs, read-out: cm.bpm.24hrs
# [9] = 24 h, 24hrs, read-out: cm.decay.rise.24hrs
# [10] = 24 h, 24hrs, read-out: cm.spacing.cv.24hrs
smiles,measurement,setting,value
Clc1ccc(Cl)c(-c2c(Cl)ccc(Cl)c2Cl)c1 [PCB95],activity at 0.01 µM,[1],91.5%
same,activity at 0.01 µM,[2],105%
same,activity at 0.01 µM,[3],99.1%
same,activity at 0.01 µM,[4],101%
same,activity at 0.01 µM,[5],118%
same,activity at 0.1 µM,[1],99.9%
same,activity at 0.1 µM,[2],86.3%
same,activity at 0.1 µM,[3],96.5%
same,activity at 0.1 µM,[4],103%
same,activity at 0.1 µM,[5],104%
same,activity at 1 µM,[1],84.6%
same,activity at 1 µM,[2],116%
same,activity at 1 µM,[3],85.3%
same,activity at 1 µM,[4],109%
same,activity at 1 µM,[5],92%
same,activity at 10 µM,[1],101%
same,activity at 10 µM,[2],120%
same,activity at 10 µM,[3],86.5%
same,activity at 10 µM,[4],120%
same,activity at 10 µM,[5],120%
same,activity at 100 µM,[1],9.49%
same,activity at 100 µM,[2],441%
same,activity at 100 µM,[3],0%
same,activity at 100 µM,[4],36.2%
same,activity at 100 µM,[5],78.1%
same,activity at 0.01 µM,[6],115%
same,activity at 0.01 µM,[7],139%
same,activity at 0.01 µM,[8],110%
same,activity at 0.01 µM,[9],92.5%
same,activity at 0.01 µM,[10],142%
same,activity at 0.1 µM,[6],181%
same,activity at 0.1 µM,[7],73.7%
same,activity at 0.1 µM,[8],113%
same,activity at 0.1 µM,[9],99.1%
same,activity at 0.1 µM,[10],137%
same,activity at 1 µM,[6],76.5%
same,activity at 1 µM,[7],36.8%
same,activity at 1 µM,[8],43.9%
same,activity at 1 µM,[9],54.1%
same,activity at 1 µM,[10],61.3%
same,activity at 10 µM,[6],144%
same,activity at 10 µM,[7],77.4%
same,activity at 10 µM,[8],79.2%
same,activity at 10 µM,[9],109%
same,activity at 10 µM,[10],127%
same,activity at 100 µM,[6],0%
same,activity at 100 µM,[7],0%
same,activity at 100 µM,[8],0%
same,activity at 100 µM,[9],0%
same,activity at 100 µM,[10],0%
